# System: NF-κB signaling pathway in MT373 tumors
# Assay: MT373 syngeneic sarcoma model: mouse NF-κB signaling pathway profiling panel
# Type: in vivo
smiles,measurement,setting,value
"CCn1c(C#CCNc2ccccc2)cc2cc(CNC3CCN(C)CC3)ccc21 [Compound 1, 1-Anilino-3-{1-ethyl-5-[(1-methyl-4-piperidylamino)methyl]-1H-indol-2-yl}-2-propyne]",Card10 fold increase over or percent reduction vs vehicle control,"150 mg/kg BIDx1, 72 h",1.39 ± 0.49 fold or %
same,Card11 fold increase over or percent reduction vs vehicle control,"150 mg/kg BIDx1, 72 h",1.52 ± 0.54 fold or %
same,Casp1 fold increase over or percent reduction vs vehicle control,"150 mg/kg BIDx1, 72 h",9.73 ± 31.75 fold or %
same,Casp8 fold increase over or percent reduction vs vehicle control,"150 mg/kg BIDx1, 72 h",1.04 ± 0.13 fold or %
same,Ccl2 fold increase over or percent reduction vs vehicle control,"150 mg/kg BIDx1, 72 h",52.53 ± 13.14 fold or %
same,Ccl5 fold increase over or percent reduction vs vehicle control,"150 mg/kg BIDx1, 72 h",2.54 ± 37.88 fold or %
same,Cd27 fold increase over or percent reduction vs vehicle control,"150 mg/kg BIDx1, 72 h",1.53 ± 0.39 fold or %
same,Cd40 fold increase over or percent reduction vs vehicle control,"150 mg/kg BIDx1, 72 h",20.33 ± 32.50 fold or %
same,Cflar fold increase over or percent reduction vs vehicle control,"150 mg/kg BIDx1, 72 h",1.10 ± 0.20 fold or %
same,Chuk fold increase over or percent reduction vs vehicle control,"150 mg/kg BIDx1, 72 h",5.62 ± 25.53 fold or %
same,Crebbp fold increase over or percent reduction vs vehicle control,"150 mg/kg BIDx1, 72 h",1.12 ± 0.15 fold or %
same,Csf1 fold increase over or percent reduction vs vehicle control,"150 mg/kg BIDx1, 72 h",3.08 ± 4.37 fold or %
same,Csf2 fold increase over or percent reduction vs vehicle control,"150 mg/kg BIDx1, 72 h",5.23 ± 19.46 fold or %
same,Csf3 fold increase over or percent reduction vs vehicle control,"150 mg/kg BIDx1, 72 h",46.68 ± 13.40 fold or %
same,Egfr fold increase over or percent reduction vs vehicle control,"150 mg/kg BIDx1, 72 h",1.01 ± 0.23 fold or %
same,Egr1 fold increase over or percent reduction vs vehicle control,"150 mg/kg BIDx1, 72 h",66.09 ± 6.29 fold or %
same,Eif2ak2 fold increase over or percent reduction vs vehicle control,"150 mg/kg BIDx1, 72 h",5.36 ± 11.08 fold or %
same,Elk1 fold increase over or percent reduction vs vehicle control,"150 mg/kg BIDx1, 72 h",19.15 ± 11.29 fold or %
same,F2r fold increase over or percent reduction vs vehicle control,"150 mg/kg BIDx1, 72 h",14.84 ± 13.77 fold or %
same,Fadd fold increase over or percent reduction vs vehicle control,"150 mg/kg BIDx1, 72 h",1.25 ± 0.13 fold or %
same,Fasl fold increase over or percent reduction vs vehicle control,"150 mg/kg BIDx1, 72 h",42.85 ± 19.54 fold or %
same,Fos fold increase over or percent reduction vs vehicle control,"150 mg/kg BIDx1, 72 h",86.19 ± 1.00 fold or %
same,Hmox1 fold increase over or percent reduction vs vehicle control,"150 mg/kg BIDx1, 72 h",1.03 ± 0.18 fold or %
same,Icam1 fold increase over or percent reduction vs vehicle control,"150 mg/kg BIDx1, 72 h",1.07 ± 0.18 fold or %
same,Ifng fold increase over or percent reduction vs vehicle control,"150 mg/kg BIDx1, 72 h",22.04 ± 33.20 fold or %
same,Ikbkb fold increase over or percent reduction vs vehicle control,"150 mg/kg BIDx1, 72 h",1.24 ± 0.27 fold or %
same,Ikbke fold increase over or percent reduction vs vehicle control,"150 mg/kg BIDx1, 72 h",2.05 ± 40.34 fold or %
same,Ikbkg fold increase over or percent reduction vs vehicle control,"150 mg/kg BIDx1, 72 h",1.06 ± 0.32 fold or %
same,Il1a fold increase over or percent reduction vs vehicle control,"150 mg/kg BIDx1, 72 h",63.60 ± 11.55 fold or %
same,Il1b fold increase over or percent reduction vs vehicle control,"150 mg/kg BIDx1, 72 h",84.09 ± 6.24 fold or %
same,Il1r1 fold increase over or percent reduction vs vehicle control,"150 mg/kg BIDx1, 72 h",9.26 ± 29.81 fold or %
same,Il10 fold increase over or percent reduction vs vehicle control,"150 mg/kg BIDx1, 72 h",12.42 ± 41.31 fold or %
same,Irak1 fold increase over or percent reduction vs vehicle control,"150 mg/kg BIDx1, 72 h",4.37 ± 14.84 fold or %
same,Irak2 fold increase over or percent reduction vs vehicle control,"150 mg/kg BIDx1, 72 h",1.07 ± 0.14 fold or %
same,Irf1 fold increase over or percent reduction vs vehicle control,"150 mg/kg BIDx1, 72 h",1.06 ± 0.20 fold or %
same,Jun fold increase over or percent reduction vs vehicle control,"150 mg/kg BIDx1, 72 h",26.30 ± 10.41 fold or %
same,Lta fold increase over or percent reduction vs vehicle control,"150 mg/kg BIDx1, 72 h",26.12 ± 35.38 fold or %
same,Ltbr fold increase over or percent reduction vs vehicle control,"150 mg/kg BIDx1, 72 h",1.05 ± 0.08 fold or %
same,Map3k1 fold increase over or percent reduction vs vehicle control,"150 mg/kg BIDx1, 72 h",1.25 ± 0.28 fold or %
same,Mapk3 fold increase over or percent reduction vs vehicle control,"150 mg/kg BIDx1, 72 h",1.22 ± 0.17 fold or %
same,Myd88 fold increase over or percent reduction vs vehicle control,"150 mg/kg BIDx1, 72 h",37.76 ± 10.69 fold or %
same,Nfkb1 fold increase over or percent reduction vs vehicle control,"150 mg/kg BIDx1, 72 h",1.06 ± 0.05 fold or %
same,Nfkb2 fold increase over or percent reduction vs vehicle control,"150 mg/kg BIDx1, 72 h",1.30 ± 0.23 fold or %
same,Nfkbia fold increase over or percent reduction vs vehicle control,"150 mg/kg BIDx1, 72 h",6.09 ± 32.11 fold or %
same,Nod1 fold increase over or percent reduction vs vehicle control,"150 mg/kg BIDx1, 72 h",1.26 ± 0.26 fold or %
same,Raf1 fold increase over or percent reduction vs vehicle control,"150 mg/kg BIDx1, 72 h",4.12 ± 9.21 fold or %
same,Rel fold increase over or percent reduction vs vehicle control,"150 mg/kg BIDx1, 72 h",1.09 ± 0.23 fold or %
same,Rela fold increase over or percent reduction vs vehicle control,"150 mg/kg BIDx1, 72 h",1.01 ± 0.08 fold or %
same,Relb fold increase over or percent reduction vs vehicle control,"150 mg/kg BIDx1, 72 h",3.68 ± 22.32 fold or %
same,Ripk1 fold increase over or percent reduction vs vehicle control,"150 mg/kg BIDx1, 72 h",1.11 ± 0.09 fold or %
same,Ripk2 fold increase over or percent reduction vs vehicle control,"150 mg/kg BIDx1, 72 h",29.79 ± 5.69 fold or %
same,Slc20a1 fold increase over or percent reduction vs vehicle control,"150 mg/kg BIDx1, 72 h",36.31 ± 7.52 fold or %
same,Smad3 fold increase over or percent reduction vs vehicle control,"150 mg/kg BIDx1, 72 h",1.09 ± 0.18 fold or %
same,Stat1 fold increase over or percent reduction vs vehicle control,"150 mg/kg BIDx1, 72 h",1.20 ± 0.20 fold or %
same,Tbk1 fold increase over or percent reduction vs vehicle control,"150 mg/kg BIDx1, 72 h",1.17 ± 0.15 fold or %
same,Tlr1 fold increase over or percent reduction vs vehicle control,"150 mg/kg BIDx1, 72 h",1.52 ± 0.56 fold or %
same,Tlr2 fold increase over or percent reduction vs vehicle control,"150 mg/kg BIDx1, 72 h",1.05 ± 0.16 fold or %
same,Tlr3 fold increase over or percent reduction vs vehicle control,"150 mg/kg BIDx1, 72 h",5.46 ± 14.97 fold or %
same,Tlr4 fold increase over or percent reduction vs vehicle control,"150 mg/kg BIDx1, 72 h",1.13 ± 0.27 fold or %
same,Tlr6 fold increase over or percent reduction vs vehicle control,"150 mg/kg BIDx1, 72 h",1.25 ± 0.31 fold or %
same,Tlr9 fold increase over or percent reduction vs vehicle control,"150 mg/kg BIDx1, 72 h",1.78 ± 0.32 fold or %
same,Tnf fold increase over or percent reduction vs vehicle control,"150 mg/kg BIDx1, 72 h",3.41 ± 24.15 fold or %
same,Tnfaip3 fold increase over or percent reduction vs vehicle control,"150 mg/kg BIDx1, 72 h",10.12 ± 40.91 fold or %
same,Tnfrsf1a fold increase over or percent reduction vs vehicle control,"150 mg/kg BIDx1, 72 h",1.18 ± 0.13 fold or %
same,Tnfrsf1b fold increase over or percent reduction vs vehicle control,"150 mg/kg BIDx1, 72 h",1.52 ± 0.29 fold or %
same,Tnfrsf10b fold increase over or percent reduction vs vehicle control,"150 mg/kg BIDx1, 72 h",1.17 ± 0.22 fold or %
same,Tnfsf10 fold increase over or percent reduction vs vehicle control,"150 mg/kg BIDx1, 72 h",1.09 ± 0.21 fold or %
same,Tnfsf14 fold increase over or percent reduction vs vehicle control,"150 mg/kg BIDx1, 72 h",1.34 ± 0.30 fold or %
same,Tollip fold increase over or percent reduction vs vehicle control,"150 mg/kg BIDx1, 72 h",1.11 ± 0.10 fold or %
same,Tradd fold increase over or percent reduction vs vehicle control,"150 mg/kg BIDx1, 72 h",1.10 ± 0.24 fold or %
same,Traf2 fold increase over or percent reduction vs vehicle control,"150 mg/kg BIDx1, 72 h",1.17 ± 0.13 fold or %
same,Traf3 fold increase over or percent reduction vs vehicle control,"150 mg/kg BIDx1, 72 h",3.24 ± 6.50 fold or %
same,Traf5 fold increase over or percent reduction vs vehicle control,"150 mg/kg BIDx1, 72 h",1.24 ± 0.14 fold or %
same,Traf6 fold increase over or percent reduction vs vehicle control,"150 mg/kg BIDx1, 72 h",1.17 ± 0.24 fold or %
same,Zap70 fold increase over or percent reduction vs vehicle control,"150 mg/kg BIDx1, 72 h",1.52 ± 0.48 fold or %
same,Agt fold increase over or percent reduction vs vehicle control,"150 mg/kg BIDx1, […]",50.51 ± 41.92 fold or %
same,Akt1 fold increase over or percent reduction vs vehicle control,"150 mg/kg BIDx1, […]",8.16 ± 7.88 fold or %
same,Atf1 fold increase over or percent reduction vs vehicle control,"150 mg/kg BIDx1, […]",1.13 ± 0.30 fold or %
same,Atf2 fold increase over or percent reduction vs vehicle control,"150 mg/kg BIDx1, […]",1.00 ± 0.20 fold or %
same,Bcl2a1a fold increase over or percent reduction vs vehicle control,"150 mg/kg BIDx1, […]",4.90 ± 3.38 fold or %
same,Bcl2l1 fold increase over or percent reduction vs vehicle control,"150 mg/kg BIDx1, […]",1.00 ± 0.07 fold or %
same,Bcl3 fold increase over or percent reduction vs vehicle control,"150 mg/kg BIDx1, […]",14.36 ± 16.67 fold or %
same,Bcl10 fold increase over or percent reduction vs vehicle control,"150 mg/kg BIDx1, […]",1.18 ± 0.09 fold or %
same,Birc3 fold increase over or percent reduction vs vehicle control,"150 mg/kg BIDx1, […]",1.10 ± 0.26 fold or %
same,Card10 fold increase over or percent reduction vs vehicle control,"150 mg/kg BIDx1, […]",40.14 ± 8.96 fold or %
same,Card11 fold increase over or percent reduction vs vehicle control,"150 mg/kg BIDx1, […]",1.85 ± 0.30 fold or %
same,Casp1 fold increase over or percent reduction vs vehicle control,"150 mg/kg BIDx1, […]",1.82 ± 0.71 fold or %
same,Casp8 fold increase over or percent reduction vs vehicle control,"150 mg/kg BIDx1, […]",1.14 ± 0.07 fold or %
same,Ccl2 fold increase over or percent reduction vs vehicle control,"150 mg/kg BIDx1, […]",1.47 ± 0.35 fold or %

# — patent US20230049952A1, “METHODS AND COMPOUNDS FOR RESTORING MUTANT P53 FUNCTION” (PMV Pharmaceuticals, Inc., priority 2020, published 2023)
